The text below walks through data of ChEMBL document CHEMBL1201862, “PubChem BioAssay data set” (2004).

Some test systems named below: SK-MEL-5; CAKI-1; SK-MEL-2; M14; SN12C; LOX IMVI; MDA-MB-231; HCT-15; HOP-62; SF-295; TK-10; SR; SK-OV-3; RXF 393; NCI-H226; SF-268; K562; DU-145; CCRF-CEM; A498.
Common to all, as to experiment: NCI tumour cell line growth inhibition, 48 h

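Exposure lasted 48 hours, with cells grown in 96-well plates and compounds tested at five concentrations. GI50 = concentration required for 50% inhibition of growth.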 Calls of active or inactive are those of the source. Rule as the data show it: active = GI50 up to about 1.1 µM and inactive = higher.

On to `CC1CCc2sc3nc(S)n(-c4ccccc4)c(=O)c3c2C1` (centres undefined), for which the GI50 in the assay on SK-MEL-5 was 44.1 µM (inactive); with CAKI-1 it was > 100 µM (inactive); with SK-MEL-2, 27.7 µM (inactive); in the assay with M14, > 100 µM (inactive); in the assay on SN12C it was > 100 µM (inactive); in the assay on LOX IMVI it was 47.2 µM (inactive). Besides, the GI50 in the assay with MDA-MB-231 was 53.8 µM (inactive); in the assay with HCT-15 it was more than 100 µM; in the assay on HOP-62, 36.3 µM (inactive); with SF-295, 27.7 µM (inactive); with TK-10, 57.8 µM (inactive); in the assay with SR it was 33.4 µM (inactive). Moreover, the GI50 was 55.1 µM (inactive) in the assay with SK-OV-3; 35.8 µM (inactive) in the assay with RXF 393; 48.9 µM (inactive) with NCI-H226; 85.7 µM (inactive) in the assay with SF-268; > 100 µM (inactive) in the assay on K562; 63.4 µM (inactive) in the assay with DU-145.

Turning to `Nc1nc(N)c(NC(=O)CCCO)c(=O)[nH]1`, the GI50 in the assay with SK-MEL-5, in the assay with CAKI-1, with SK-MEL-2, with M14, in the assay with SN12C and with LOX IMVI was > 100 µM (inactive) throughout. The GI50 in the assay on MDA-MB-231 was > 100 µM (inactive); in the assay on HCT-15, more than 100 µM; with CCRF-CEM it was > 100 µM (inactive); with A498, > 100 µM (inactive); in the assay on HOP-62 it was > 100 µM (inactive); with SF-295, > 100 µM (inactive). For the same molecule, the GI50 in the assay with TK-10, in the assay on SK-OV-3, in the assay with RXF 393, in the assay on NCI-H226, in the assay on SF-268 and in the assay on K562 was > 100 µM (inactive) throughout. The GI50 with DU-145 was > 100 µM (inactive).

`Nc1nc(O)nc2c1ncn2C1OC(CO)C(O)C1O` (centres undefined): the GI50 in the assay with SK-MEL-5 was > 100 µM (inactive); in the assay with CAKI-1 it was 54 µM (inactive); in the assay on SK-MEL-2 it was 64.4 µM (inactive); with M14 it was 39.9 µM (inactive); in the assay on SN12C, 33.1 µM (inactive); in the assay with LOX IMVI it was 38.8 µM (inactive). Further, the GI50 with MDA-MB-231 was 38 µM (inactive); in the assay with HCT-15, 28.4 µM; with CCRF-CEM it was 33 µM (inactive); with A498, > 100 µM (inactive); in the assay on HOP-62, > 100 µM (inactive); with SF-295 it was > 100 µM (inactive). Moreover, the GI50 in the assay with TK-10 is 38.5 µM (inactive); in the assay on SK-OV-3, 40.2 µM (inactive); with RXF 393 it was 72.3 µM (inactive); in the assay on NCI-H226, 69.3 µM (inactive); in the assay with SF-268, > 100 µM (inactive); with K562, 44.2 µM (inactive). The GI50 with DU-145 is 23.5 µM (inactive).

As for `C=CC[C@H](N=C(SC)SC)C(=O)N1C(=O)N(C)[C@@H](C)[C@H]1c1ccccc1`, the GI50 in the assay on SK-MEL-5 is 20 µM (inactive); in the assay with CAKI-1, 25.1 µM (inactive); with SK-MEL-2 it was 30 µM (inactive); with M14, 34.9 µM (inactive); in the assay with SN12C, 40.7 µM (inactive); in the assay with LOX IMVI, 72.8 µM (inactive). The GI50 is > 100 µM (inactive) in the assay with MDA-MB-231; 49.8 µM in the assay with HCT-15; 22.3 µM (inactive) with CCRF-CEM; 56.8 µM (inactive) in the assay with A498; 46.5 µM (inactive) in the assay with HOP-62; 40.3 µM (inactive) in the assay on SF-295. Also, the GI50 is 44.2 µM (inactive) in the assay on TK-10; 75 µM (inactive) in the assay on SK-OV-3; 33.8 µM (inactive) with RXF 393; 31.6 µM (inactive) in the assay on NCI-H226; 26.5 µM (inactive) in the assay with SF-268; 29.6 µM (inactive) in the assay with K562. In addition, the GI50 in the assay with DU-145 was 37.5 µM (inactive).

For `Cn1c(=O)c2c(O)cc(N)nc2n(C)c1=O`, the GI50 was > 100 µM (inactive) in the assay on SK-MEL-5; 28.9 µM (inactive) in the assay with CAKI-1; > 100 µM (inactive) in the assay with SK-MEL-2; > 100 µM (inactive) with M14; > 100 µM (inactive) in the assay on SN12C; > 100 µM (inactive) in the assay on LOX IMVI. In addition, the GI50 in the assay with MDA-MB-231, in the assay on CCRF-CEM, in the assay on A498, in the assay with HOP-62, in the assay with SF-295 and with TK-10 was > 100 µM (inactive) throughout. The GI50 in the assay on SK-OV-3, with RXF 393, in the assay with NCI-H226, in the assay on SF-268, with K562 and in the assay with DU-145 was > 100 µM (inactive) throughout.

On to `COc1ccc(-c2cc(-c3ccc(C)cc3)n(C3OC(COC(C)=O)C(OC(C)=O)C(OC(C)=O)C3OC(C)=O)c(=S)c2C#N)cc1` (centres undefined), for which the GI50 in the assay on SK-MEL-5, with CAKI-1, with M14, in the assay on SN12C, in the assay with LOX IMVI and in the assay on MDA-MB-231 was > 100 µM (inactive) throughout. The GI50 is more than 100 µM in the assay on HCT-15; 37.1 µM (inactive) in the assay on HOP-62; > 100 µM (inactive) in the assay on SF-295; > 100 µM (inactive) with TK-10; > 100 µM (inactive) in the assay with SR; > 100 µM (inactive) in the assay on SK-OV-3. The GI50 was 79.4 µM (inactive) in the assay with RXF 393; > 100 µM (inactive) in the assay with NCI-H226; > 100 µM (inactive) with SF-268; > 100 µM (inactive) in the assay on K562; > 100 µM (inactive) with DU-145.

Turning to `CC(=O)Oc1c(N2CCCCC2)c(C(=O)c2ccccc2)c(O)c2ccn(N(C)C)c12`, the GI50 is 15.9 µM (inactive) with SK-MEL-5; 15.4 µM (inactive) in the assay with CAKI-1; 25.2 µM (inactive) in the assay with SK-MEL-2; 21.7 µM (inactive) in the assay on M14; 18.5 µM (inactive) with SN12C; 14.1 µM (inactive) in the assay on LOX IMVI. Moreover, the GI50 with MDA-MB-231 was 14 µM (inactive); in the assay with HCT-15 it was 18 µM; in the assay on CCRF-CEM, 15.7 µM (inactive); with A498, 15.3 µM (inactive); in the assay on HOP-62 it was 27.2 µM (inactive); with SF-295 it was 15 µM (inactive). For the same molecule, the GI50 was 16.7 µM (inactive) in the assay with TK-10; 20.8 µM (inactive) in the assay with SK-OV-3; 20.7 µM (inactive) in the assay on RXF 393; 14.2 µM (inactive) in the assay with NCI-H226; 21.9 µM (inactive) with SF-268; 34.4 µM (inactive) in the assay on K562. In addition, in the assay on DU-145, the GI50 is 21.8 µM (inactive).

With `COC(=O)c1cc(NC(=O)c2cc(NC(=O)c3cc([N+](=O)[O-])cn3C)cn2C)cn1C`, the GI50 with SK-MEL-5 was 10.2 µM (inactive); in the assay on CAKI-1, 69.2 µM (inactive); in the assay with SK-MEL-2, 80.2 µM (inactive); in the assay on M14, > 100 µM (inactive); in the assay with SN12C it was > 100 µM (inactive); in the assay on LOX IMVI it was 56.2 µM (inactive). Moreover, the GI50 was 35.6 µM (inactive) with MDA-MB-231; 82 µM with HCT-15; > 100 µM (inactive) in the assay with CCRF-CEM; > 100 µM (inactive) in the assay with A498; > 100 µM (inactive) in the assay with HOP-62; 89.5 µM (inactive) in the assay with SF-295. In addition, the GI50 in the assay on TK-10 is 20.3 µM (inactive); in the assay on SK-OV-3 it was 49.4 µM (inactive); with RXF 393 it was > 100 µM (inactive); in the assay with NCI-H226, > 100 µM (inactive); in the assay on SF-268, > 100 µM (inactive); in the assay on K562 it was 61.9 µM (inactive). Besides, the GI50 with DU-145 was > 100 µM (inactive).

Take `N=C(N)NS(=O)(=O)c1ccc(Nc2c3ccccc3nc3c(C(=O)NNCCO)cccc23)cc1`: the GI50 in the assay on SK-MEL-5 was 0.123 µM (active); in the assay with CAKI-1 it was 0.198 µM (active); in the assay on SK-MEL-2, 0.156 µM (active); with M14, 0.21 µM (active); with SN12C it was 0.282 µM (active); in the assay on LOX IMVI, 0.165 µM (active). Further, the GI50 with MDA-MB-231 is 0.261 µM (active); in the assay on HCT-15, 0.33 µM; with CCRF-CEM it was 0.0541 µM (active); in the assay on A498 it was > 1 µM (active); with HOP-62, 0.193 µM (active); in the assay with SF-295, 0.407 µM (active). Besides, the GI50 with TK-10 is > 1 µM (active); in the assay on SK-OV-3, > 1 µM (active); with RXF 393, 0.186 µM (active); with NCI-H226 it was 0.19 µM (active); in the assay with SF-268, 0.141 µM (active); in the assay on K562, 0.055 µM (active). Also, in the assay with DU-145, the GI50 was 0.578 µM (active).

On to `c1ccc(-n2nc3ccc4nonc4c3n2)cc1`, for which the GI50 with SK-MEL-5, in the assay on CAKI-1, in the assay on SK-MEL-2, in the assay on M14, in the assay with SN12C and with LOX IMVI was > 100 µM (inactive) throughout. In addition, the GI50 in the assay on MDA-MB-231 is > 100 µM (inactive); in the assay on HCT-15, more than 100 µM; in the assay with CCRF-CEM it was > 100 µM (inactive); in the assay on HOP-62 it was > 100 µM (inactive); with SF-295, > 100 µM (inactive); with TK-10, > 100 µM (inactive). The GI50 in the assay on SR, in the assay with SK-OV-3, in the assay on RXF 393, with SF-268, with K562 and with DU-145 was > 100 µM (inactive) each time.

For `Cc1cc(S(=O)(=O)Nc2nc(N)nc(N3N=CCC3C)n2)c(SCC(=O)O)cc1Cl` (centres undefined), the GI50 in the assay with SK-MEL-5, in the assay on CAKI-1, in the assay with SK-MEL-2, with M14, with SN12C and in the assay with LOX IMVI was > 10 µM (inactive) throughout. For the same molecule, the GI50 was > 10 µM (inactive) in the assay on MDA-MB-231; more than 10 µM in the assay on HCT-15; > 10 µM (inactive) in the assay with CCRF-CEM; > 10 µM (inactive) in the assay on A498; > 10 µM (inactive) in the assay with HOP-62; > 10 µM (inactive) in the assay with SF-295. Further, the GI50 in the assay on TK-10, with SK-OV-3, in the assay on RXF 393, with NCI-H226, in the assay on SF-268 and with K562 was > 10 µM (inactive) each time. Moreover, the GI50 with DU-145 is > 10 µM (inactive).
